In ChEMBL document CHEMBL4431319, “Design and synthesis of 4'-O-alkylamino-tethered-benzylideneindolin-2-ones as potent cytotoxic and apoptosis inducing agents” (Bioorg Med Chem Lett, 2016):
Active and inactive are the calls of the source. The rule behind the calls is not given here.

Key:
DU-145 = test: Cytotoxicity against human DU145 cells after 48 hrs by MTT assay; type: functional, cell-based; conditions: DU-145, 48 h
MDA-MB-231 [1] = test: Cytotoxicity against human MDA-MB-231 cells after 48 hrs by MTT assay; type: functional, cell-based; conditions: MDA-MB-231, 48 h
BT-549 = test: Cytotoxicity against human BT549 cells after 48 hrs by MTT assay; type: functional, cell-based; conditions: BT-549, 48 h
A549 = test: Cytotoxicity against human A549 cells after 48 hrs by MTT assay; type: functional, cell-based; conditions: A549, 48 h
MCF-10A = test: Cytotoxicity against human MCF10A cells after 48 hrs by MTT assay; type: cell-based
MDA-MB-231 [2] = test: Induction of apoptosis in human MDA-MB-231 cells assessed as appearance of horseshoe shaped nuclei at compound IC50 after 24 hrs by […] staining-based fluorescence microscopic analysis; type: functional, cell-based
MDA-MB-231 [3] = test: Induction of detachment of human MDA-MB-231 cells at compound IC50 after 24 to 48 hrs by phase contrast microscopic analysis; type: functional, cell-based
MDA-MB-231 [4] = test: Disruption of F-actin-mediated stress fiber formation around nucleus in human MDA-MB-231 cells at compound IC50 after 12 hrs by rhodamine-phalloidin/[…] staining-based confocal microscopic analysis; type: functional, cell-based
MDA-MB-231 [5] = test: Induction of apoptosis in human MDA-MB-231 cells assessed as chromatin condensation at compound IC50 after 24 hrs by […] staining-based fluorescence microscopic analysis; type: functional, cell-based
MDA-MB-231 [6] = test: Induction of cell cycle arrest in human MDA-MB-231 cells assessed as accumulation at […] at 5 uM after 24 hrs by propidium iodide staining based flow cytometry (reference value: 26.12%); type: functional
MDA-MB-231 [7] = test: Antimigratory activity in human MDA-MB-231 cells at compound IC50 after 24 to 48 hrs by wound healing assay relative to control; type: functional, cell-based
MDA-MB-231 [8] = test: Induction of cell cycle arrest in human MDA-MB-231 cells assessed as accumulation at G2/M phase at 5 uM after 24 hrs by propidium iodide staining based flow cytometry (reference value: 18.86%); type: functional
MDA-MB-231 [9] = test: Induction of cell cycle arrest in human MDA-MB-231 cells assessed as accumulation at G2/M phase at 10 uM after 24 hrs by propidium iodide staining based flow cytometry (reference value: 18.86%); type: functional
MDA-MB-231 [10] = test: Induction of cell cycle arrest in human MDA-MB-231 cells assessed as accumulation at […] at 2.5 uM after 24 hrs by propidium iodide staining based flow cytometry (reference value: 26.12%); type: functional
MDA-MB-231 [11] = test: Induction of apoptosis in human MDA-MB-231 cells assessed as fragmented nuclei at compound IC50 after 24 hrs by […] staining-based fluorescence microscopic analysis; type: functional, cell-based
MDA-MB-231 [12] = test: Induction of cell cycle arrest in human MDA-MB-231 cells assessed as accumulation at G0/G1 phase at 2.5 uM after 24 hrs by propidium iodide staining based flow cytometry (reference value: 55.02%); type: functional
MDA-MB-231 [13] = test: Induction of apoptosis in human MDA-MB-231 cells assessed as pyknosis at compound IC50 after 24 hrs by […] staining-based fluorescence microscopic analysis; type: functional, cell-based
MDA-MB-231 [14] = test: Induction of ROS generation in human MDA-MB-231 cells at compound IC50 after 24 hrs by DCFDA staining-based spectrofluorometric analysis relative to control; type: functional, cell-based
MDA-MB-231 [15] = test: Induction of cell cycle arrest in human MDA-MB-231 cells assessed as accumulation at G0/G1 phase at 10 uM after 24 hrs by propidium iodide staining based flow cytometry (reference value: 55.02%); type: functional
MDA-MB-231 [16] = test: Induction of cell cycle arrest in human MDA-MB-231 cells assessed as accumulation at G0/G1 phase at 5 uM after 24 hrs by propidium iodide staining based flow cytometry (reference value: 55.02%); type: functional
MDA-MB-231 [17] = test: Induction of nuclear shrinkage in human MDA-MB-231 cells at IC50 after 24 to 48 hrs by phase contrast microscopic analysis; type: functional, cell-based
MDA-MB-231 [18] = test: Induction of cell cycle arrest in human MDA-MB-231 cells assessed as accumulation at G2/M phase at 2.5 uM after 24 hrs by propidium iodide staining based flow cytometry (reference value: 18.86%); type: functional
MDA-MB-231 [19] = test: Induction of cell cycle arrest in human MDA-MB-231 cells assessed as accumulation at […] at 10 uM after 24 hrs by propidium iodide staining based flow cytometry (reference value: 26.12%); type: functional
MDA-MB-231 [20] = test: Disruption of mitochondrial membrane potential in human MDA-MB-231 cells at compound IC50 after 24 hrs by rhodamine 123 staining-based spectrofluorometric analysis; type: functional

Row | Structure (SMILES) | IC50 (DU-145) [µM] | IC50 (MDA-MB-231 [1]) [µM] | IC50 (BT-549) [µM] | IC50 (A549) [µM] | IC50 (MCF-10A) [µM] | other results
1 | COc1cc(/C=C2\C(=O)Nc3ccccc32)ccc1OCCCN1CCN(c2ccccn2)CC1 | > 20 | > 20 | > 20 | > 20 |  | 
2 | COc1cc(/C=C2\C(=O)Nc3ccccc32)ccc1OCCCN1CCN(C)CC1 | 2.23 | 2.07 | 2.53 | 3.35 | > 100 | 
3 | COc1cc(/C=C2\C(=O)Nc3ccc(Cl)cc32)ccc1OCCCN1CCN(c2ccccn2)CC1 | > 20 | 14.8 | > 20 | > 20 | 51.3 | 
4 | COc1cc(/C=C2\C(=O)Nc3ccccc32)ccc1OCCCn1nc(C)cc1C | > 20 | > 20 | > 20 | > 20 |  | 
5 | COc1cc(/C=C2\C(=O)Nc3ccc(C)cc32)ccc1OCCCN1CC(C)OC(C)C1 (configuration not stated) | > 20 | 11.5 | > 20 | > 20 |  | 
6 | COc1cc(/C=C2\C(=O)Nc3ccc(Cl)cc32)ccc1OCCCN1CCOCC1 | 2.91 | 2.51 | 2.79 | 5.5 | > 100 | 
7 | COc1cc(/C=C2\C(=O)Nc3ccc(Cl)cc32)ccc1OCCCN1CCN(c2ncccc2C(F)(F)F)CC1 | 1.61 | 1.26 | 1.53 | 9.53 | 41.3 | Activity (MDA-MB-231 [2]): Active; Activity (MDA-MB-231 [3]): Active; Activity (MDA-MB-231 [4]): Active; Activity (MDA-MB-231 [5]): Active; Activity (MDA-MB-231 [6]): 11.74%; Activity (MDA-MB-231 [7]): Active; Activity (MDA-MB-231 [8]): 10.54%; Activity (MDA-MB-231 [9]): 9.42%; Activity (MDA-MB-231 [10]): 17.93%; Activity (MDA-MB-231 [11]): Active; Activity (MDA-MB-231 [12]): 68.53%; Activity (MDA-MB-231 [13]): Active; Activity (MDA-MB-231 [14]): Active; Activity (MDA-MB-231 [15]): 84.74%; Activity (MDA-MB-231 [16]): 77.62%; Activity (MDA-MB-231 [17]): Active; Activity (MDA-MB-231 [18]): 13.45%; Activity (MDA-MB-231 [19]): 5.81%; Activity (MDA-MB-231 [20]): 40%
8 | COc1cc(/C=C2\C(=O)Nc3ccc(F)cc32)ccc1OCCN1CCOCC1 | > 20 | > 20 | > 20 | > 20 |  | 
9 | COc1cc(/C=C2\C(=O)Nc3ccc(Cl)cc32)ccc1OCCCN1CC(C)OC(C)C1 (configuration not stated) | 2.71 | 1.99 | 2.77 | 6.25 | 54.6 | Activity (MDA-MB-231 [2]): Active; Activity (MDA-MB-231 [3]): Active; Activity (MDA-MB-231 [4]): Active; Activity (MDA-MB-231 [5]): Active; Activity (MDA-MB-231 [7]): Active; Activity (MDA-MB-231 [11]): Active; Activity (MDA-MB-231 [13]): Active; Activity (MDA-MB-231 [14]): Active; Activity (MDA-MB-231 [17]): Active; Activity (MDA-MB-231 [20]): 28%
10 | COc1cc(/C=C2\C(=O)Nc3ccccc32)ccc1OCCN1CCOCC1 | > 20 | > 20 | > 20 | > 20 |  | 
11 | COc1cc(/C=C2\C(=O)Nc3ccc(Cl)cc32)ccc1OCCCN1CCN(C)CC1 | 2.15 | 1.75 | 2.17 | 11.3 | 43.6 | Activity (MDA-MB-231 [2]): Active; Activity (MDA-MB-231 [3]): Active; Activity (MDA-MB-231 [4]): Active; Activity (MDA-MB-231 [5]): Active; Activity (MDA-MB-231 [7]): Active; Activity (MDA-MB-231 [11]): Active; Activity (MDA-MB-231 [13]): Active; Activity (MDA-MB-231 [14]): Active; Activity (MDA-MB-231 [17]): Active; Activity (MDA-MB-231 [20]): 32%
12 | COc1cc(/C=C2\C(=O)Nc3ccccc32)ccc1OCCCN1CCOCC1 | > 20 | > 20 | > 20 | > 20 |  | 
13 | COc1cc(/C=C2\C(=O)Nc3ccc(C)cc32)ccc1OCCCN1CCN(c2ncccc2C(F)(F)F)CC1 | > 20 | > 20 | > 20 | > 20 |  | 
14 | COc1cc(/C=C2\C(=O)Nc3ccc(C)cc32)ccc1OCCN1CCOCC1 | > 20 | 9.5 | > 20 | > 20 | > 100 | 
15 | COc1cc(/C=C2\C(=O)Nc3ccccc32)ccc1OCCCN1CC(C)OC(C)C1 (configuration not stated) | > 20 | 15.2 | > 20 | > 20 |  | 
16 | COc1cc(/C=C2\C(=O)Nc3ccc(Cl)cc32)ccc1OCCN1CCOCC1 | 4.43 | 3.31 | 3.52 | 14.7 | 61.3 | 
17 | COc1cc(/C=C2\C(=O)Nc3ccccc32)ccc1OCCCN1CCc2ccccc21 | > 20 | > 20 | > 20 | > 20 |  | 
18 | COc1cc(/C=C2\C(=O)Nc3ccc(Br)cc32)ccc1OCCN1CCOCC1 | > 20 | > 20 | > 20 | > 20 |  | 
19 | COc1cc(/C=C2\C(=O)Nc3ccc(C)cc32)ccc1OCCCN1CCOCC1 | > 20 | > 20 | > 20 | > 20 |  | 
20 | COc1cc(/C=C2\C(=O)Nc3ccccc32)ccc1OCCCN1CCN(c2ncccc2C(F)(F)F)CC1 | > 20 | > 20 | > 20 | > 20 |  | 
